Patent publication US20100178249A1, “IMAGING MEDIUM COMPRISING LACTATE AND HYPERPOLARISED 13C-PYRUVATE” (priority 2006, published 2010)

Tests used:
Type in all cases: cell-based
[1] = test system: EL-4 murine lymphoma cells; assay: 31P-NMR measurements on acid-extracts of EL-4 cells induced to undergo cell death
Text: Loss of NAD(H) can be explained by DNA-damage induced activation of the enzyme poly-ADP-ribose polymerase (PARP), which polyadenylates various proteins and uses NAD^+ as a substrate. There was also an increase in the resonances from the glycolytic intermediate, fructose-1,6-bisphosphate (FBP), which can be explained by inhibition of the glycolytic enzyme, glyceraldehyde 3-phosphate dehydrogenase (GAPDH), through loss of its coenzyme NAD(H). Inhibition of PARP activity with a competitive inhibitor (20 mM nicotinamide) or 3-aminobenzamide (10 mM) inhibited the loss of NAD(H) and the increase in FBP concentration observed in apoptotic cells.

[2] = test system: EL4 murine lymphoma cells; assay: 13C-MR spectroscopy of hyperpolarised 13C-label flux between pyruvate and lactate in EL4 cells; conditions: cells treated with both the PARP inhibitor and etoposide
Method: (§1) EL4 murine lymphoma cells (10^8 cells) were treated with 15 μM etoposide (PCH Pharmachemie BV, Harleem), a compound which is known to induce cell death after 16 h exposure. A separate set of cells was treated for 16 hours with 15 μM etoposide plus 20 mM nicotinamide, a known PARP inhibitor. Cell death (apoptosis and necrosis) was confirmed by acridine orange and propidium iodide staining. The cells were washed 3 times with RPMI 1640 growth medium containing 10% FCS at 37° C. and to 2 ml of the etoposide- and etoposide/nicotinamide treated EL4 cell suspension 2 ml of the imaging medium according to Example 2 were added. The final cell suspension thus contained 30 mM hyperpolarised ^13C1-pyruvate and 37.5 mM lactate.
^13C-signal intensities from ^13C-pyruvate and ^13C-lactate in etoposide-treated EL4 cell suspensions as described in 3.1 were followed over a time period of 240 seconds from the time of addition of the imaging medium. […]
^13C-signal intensities from ^13C-pyruvate and ^13C-lactate in etoposide-treated and etoposide/nicotinamide treated EL4 cell suspensions as described in 3.1 were followed over a time period of 240 seconds from the time of addition of the imaging medium. […] The data were fit to a two-site exchange model based on the modified Bloch equations, and the rate constants for the forward and reverse exchange ^13C-fluxes were determined. […]

[3] = test system: EL4 murine lymphoma cells; assay: Cell death by acridine orange and propidium iodide staining / fluorescence microscopy; conditions: for morphological features of dying cells: cells treated with both the PARP inhibitor and etoposide, fluorescence microscopy
Method: as §1

[4] = etoposide-treated cells compared to untreated control cells

SMILES	increase in FBP concentration observed in apoptotic cells ([1]; 20 mM nicotinamide)	loss of NAD(H) observed in apoptotic cells ([1]; 20 mM nicotinamide)	ability to transfer the hyperpolarised 13C-label between the pyruvate and lactate pools [2]	morphological features of dying cells [3]	increase in FBP concentration observed in apoptotic cells ([1]; 3-aminobenzamide 10 mM)	loss of NAD(H) observed in apoptotic cells ([1]; 3-aminobenzamide 10 mM)	intensity of the resonances from NAD(H) [1, 4]	resonances from fructose-1,6-bisphosphate (FBP) [1, 4]	cell death (apoptosis and necrosis) ([3]; 15 μM etoposide, 16 h exposure)
NC(=O)c1cccnc1 [nicotinamide]	inhibited	inhibited	maintained	still exhibiting the common morphological features of dying cells					
NC(=O)c1cccc(N)c1 [3-aminobenzamide]			maintained	still exhibiting the common morphological features of dying cells	inhibited	inhibited			
COc1cc([C@@H]2c3cc4c(cc3[C@@H](O[C@@H]3O[C@@H]5CO[C@@H](C)O[C@H]5[C@H](O)[C@H]3O)[C@H]3COC(=O)[C@H]23)OCO4)cc(OC)c1O [etoposide]							decrease	increase	confirmed
